Consider eleven compounds from US20260216347A1, “Substituted Imidazo-Based Compounds as Ligand Directed Degraders of IRAK3” (Celgene Corporation, priority 2022, published 2026).

The target in one assay is T1, IRAK3-ePL (Homo sapiens, UniProt Q9Y616).
T1 construct: expressed in transfected cells; host or cells: 293T CRBN OE/GSPT1 G575N KI cells, lentiviral transduction, puromycin selected
The experiment in a line: IRAK3-ePL overexpressing degradation assay (InCELL Hunter luminescence, dose response). The conditions noted are these: for IRAK3 ePL degradation Ymin: lowest percentage of target protein remaining following compound treatment; for DC50: read-out: IRAK3 ePL degradation EC50. Format: cell-based. How it is done: Example B1. IRAK3-ePL Overexpressing Degradation Assay
Stable cell lines were generated by the following protocol. 3×10^5 Lenti-X 293T cells (Clonetech) were plated in 0.8 mL of media in a 12-well plate and incubated overnight at 37° C./5% CO2. Packaging plasmid (0.4 μg, pMD), envelope plasmid (0.4 μg, pSP), and lentiviral transfer IRAK3-ePL plasmid (0.8 μg, TRAK3 sequence NM_007199.3) were mixed in 0.1 mL of Opti-MEM and incubated for 5 min. Simultaneously, 2.4 μL of Lipofectamine 2000 (Invitrogen) was added to 0.1 mL of Opti-MEM (Gibco) and incubated for 5 min. The plasmid DNA and lipofectamine were combined and the mixture was allowed to incubate for 20 min.DNA:Lipofectamine Opti-MEM mixtures were then added to previously plated cells dropwise and the cells were incubated for ~16 h at 37° C./5% CO2. Following incubation, the media was removed and 1.2 mL of fresh media was added per well. Lenti-X 293T cells were incubated for ~30 h at 37° C./5% CO2. […] Following incubation, media was removed from the Lenti-X 293T wells and passed through a […] filter. Part of the viral supernatant was used to transduce cells and the rest was stored at −80° C. Viruses were then added individually (0.5 mL virus) to each well of the 293T^CRBN OE/GSPT1 G575N KI cells, followed by addition of polybrene (10 mg/mL Millipore) to each well at a final concentration of 5.0 μg/mL. Cells were incubated for ~24 h at 37° C./5% CO2. After aspirating media off plates, cells were washed with DPBS, trypsinized and plated in a 10 cm dish in 15 mL of media and […] puromycin. Following incubation of cells for ~72 h at 37° C./5% CO2, media was aspirated off plates, and cells were washed with DPBS and trypsinized. The cells were plated in a 15 cm dish in 40 mL of media with 1.0 μg/mL Puromycin (Gibco) and incubated for ~72 h at 37° C./5% CO2. Following incubation, media was removed and cells were washed with DPBS and trypsinized. The majority of cells were resuspended in Invitrogen freezing media and stored away (~6-8×10^6 cells/vial).
IRAK3-ePL cellular dose response curve degradation assays were performed by the following protocol. Compounds to be tested were dispensed into a white 384-well tissue-culture treated plate using an acoustic liquid handler. Dilutions were prepared based on a 25 μL assay volume in duplicate 10 point 3-fold serial dilutions starting with a 10 μM dose. Negative control wells were included, which only contain 0.2% DMSO to calculate 100% signal. Positive control wells containing 30 μM Ataluren (luciferase inhibitor) were included to calculate the background signal level. All wells were backfilled to a final DMSO concentration of 0.2% to ensure DMSO uniformity across wells. IRAK3-ePL expressing cells (IRAK3-ePL Lenti-X 293T^CRBN/GSPT1 G575N) were washed, trypsinized, counted, and resuspended in fresh DMEM (Gibco) to give a cell concentration of 200,000 cells/mL. 25 μL of cells (5,000 cells/well) were dispensed into the wells of the 384-well plate prespotted with compounds in the previous step and incubated overnight at 37° C./5% CO2. Following incubation, the 384-well plate was taken out of the incubator and left at room temperature for 30 min. InCELL hunter reagent was prepared according to manufacturer's instructions (EA reagent, lysis buffer, and substrate reagent in a 1:1:4 ratio, Cat #96-0002, DiscoverX), which was added to the 384-well plate 25 μL per well. Following the incubation of the plate for 1 h at room temperature, the luminescence signal was read using a ViewLux plate reader. Data was processed and analyzed in ActivityBase software. In short, the average luminescence values of the positive control wells were subtracted from the rest of the wells for background correction, and all luminescence values were normalized to the DMSO control wells. The average value of the DMSO control wells was set to equal 100% of the relative IRAK3-ePL protein levels. […]

Another assay concerns the target T2, IRAK3 (Homo sapiens, UniProt Q9Y616).
T2 construct: IRAK Endogenous HTRF Degradation Assay; endogenous in cells
T2 sequence (Q9Y616 1-596): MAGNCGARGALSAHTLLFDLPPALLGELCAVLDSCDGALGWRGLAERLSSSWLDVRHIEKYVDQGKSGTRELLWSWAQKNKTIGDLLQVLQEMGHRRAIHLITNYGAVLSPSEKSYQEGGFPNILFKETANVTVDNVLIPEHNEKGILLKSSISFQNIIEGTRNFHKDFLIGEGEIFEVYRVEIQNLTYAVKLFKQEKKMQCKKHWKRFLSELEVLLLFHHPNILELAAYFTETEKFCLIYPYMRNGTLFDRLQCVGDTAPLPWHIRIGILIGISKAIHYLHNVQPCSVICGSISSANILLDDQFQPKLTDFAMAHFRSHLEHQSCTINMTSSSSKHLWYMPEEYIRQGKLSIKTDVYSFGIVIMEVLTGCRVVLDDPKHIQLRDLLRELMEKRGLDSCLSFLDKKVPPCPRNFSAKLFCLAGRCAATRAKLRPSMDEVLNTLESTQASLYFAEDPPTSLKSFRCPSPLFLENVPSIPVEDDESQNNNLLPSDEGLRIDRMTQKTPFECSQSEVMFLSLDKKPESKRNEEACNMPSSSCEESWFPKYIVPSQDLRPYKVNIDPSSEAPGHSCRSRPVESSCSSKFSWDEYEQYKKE
The experiment in a line: IRAK3 biochemical binding assay (LanthaScreen Eu Kinase Binding, TR-FRET). How it is done: Example B3. IRAK3 Biochemical Binding Assay
The LanthaScreen® Eu Kinase Binding assay was performed as described by the vendor (ThermoFisher Scientific Waltham, MA). Briefly, 100× solutions of compound were prepared in DMSO via serial dilution of the 10 mM stock solution in a 384-well reagent plate using 3-fold intervals to achieve final concentrations. 1 μL of the compound dilution series were added to the corresponding wells of a 384-well reagent plate containing 32.3 μL of 1× buffer (50 mM HEPES pH 7.4, […], 1 mM EGTA, 0.01% Brij-35). 5 μL of the buffer diluted compounds were transferred to the corresponding wells of a 384-well assay plate. 5 μL of 3× tracer was transferred to each well of the assay plate for a final tracer concentration of 10 nM. Finally, 5 μL of the 3×Eu-Anti-GST and IRAK3 mix was transferred to each well for a final concentration of 2 nM and 10 nM respectively. Reactions were allowed to incubate for 1 hour at room temperature. TR-FRET signal of the interaction (λex340/λem 665/λem 615) was read at room temperature with a delay time of 100 ρs and an integration time of 200 ρs using an Envision plate reader. Background corrected emission signal ratios at each compound concentration were used to calculate percentage of inhibition (% Inhibition). Plots of % Inhibition versus inhibitor concentrations were fit according to a dose-response equation (Eq. 1) to generate IC50 and Hill slope values using Dotmatics software (Dotmatics, Bishops Stortford, Hertfordshire, England).
Using these assays, IC50, Dmax, EC50, and DC50 values of the following compounds were determined. Dmax is defined as the maximum percent degradation achieved and DC50 is the concentration at which 50% degradation is achieved.
Background: In TR-FRET formats the signal depends on donor and acceptor labels being close together.

Molecules are shown by their SMILES.

Broadly, the IC50 is the concentration that gives 50% inhibition. Higher therefore signals a need for much substance. As to `Cc1cccc(-c2cnc(Nc3cnn(C4CCN(CCN5CCN(c6ccc(C7CCC(=O)NC7=O)cc6)CC5)CC4)c3)c3nccn23)c1` (stereo not drawn) [Compound 5, 3-(4-(4-(2-(4-(4-((5-(m-tolyl)imidazo[1,2-a]pyrazin-8-yl)amino)-1H-pyrazol-1-yl)piperidin-1-yl)ethyl)piperazin-1-yl)phenyl) piperidine-2,6-dione], on IRAK3-ePL, the “IRAK3 ePL degradation Ymin” value is reported as 14% and the DC50 was 1 nM. For the same compound, the half-maximal inhibitory concentration (IC50) at IRAK3 is 5.9 nM.

With `O=C1CCC(c2ccc(N3CCN(CCN4CCC(n5cc(Nc6ncc(-c7ccc8c(c7)NC(=O)CO8)n7ccnc67)cn5)CC4)CC3)cc2)C(=O)N1` (stereo not drawn) [Compound 15, 3-(4-(4-(2-(4-(4-((5-(3-oxo-3,4-dihydro-2H-benzo[b][1,4]oxazin-6-yl)imidazo[1,2-a]pyrazin-8-yl)amino)-1H-pyrazol-1-yl)piperidin-1-yl)ethyl)piperazin-1-yl)phenyl) piperidine-2,6-dione], on IRAK3-ePL, the “IRAK3 ePL degradation Ymin” value was 15% and the DC50 was found to be 0.51 nM. This compound registered an IC50 on IRAK3 of 6.4 nM.

On to `Cc1cccc(-c2cnc(Nc3cnn(C4CCN(CC(=O)N5CCN(c6ccc(C7CCC(=O)NC7=O)cc6)CC5)CC4)c3)c3nccn23)c1` (stereo not drawn) [Compound 20, 3-(4-(4-(2-(4-(4-((5-(m-tolyl)imidazo[1,2-a]pyrazin-8-yl)amino)-1H-pyrazol-1-yl)piperidin-1-yl)acetyl)piperazin-1-yl)phenyl)piperidine-2,6-dione], for which, at IRAK3-ePL, the “IRAK3 ePL degradation Ymin” value amounted to 16% and the DC50 amounted to 0.77 nM. In addition, the IC50 on IRAK3 was determined as 2.9 nM.

In the case of `C[C@@H]1CN(c2ccc(C3CCC(=O)NC3=O)cc2)CCN1CCN1CCC(n2cc(Nc3ncc(C4CC4)n4ccnc34)cn2)CC1` (stereo partly drawn) [Compound 32, 3-(4-((R)-4-(2-(4-(4-((5-cyclopropylimidazo[1,2-a]pyrazin-8-yl)amino)-1H-pyrazol-1-yl)piperidin-1-yl)ethyl)-3-methylpiperazin-1-yl)phenyl) piperidine-2,6-dione], at IRAK3-ePL, the “IRAK3 ePL degradation Ymin” value is 23% and the DC50 came to 1.4 nM. The IC50 on IRAK3 was found to be 36 nM.

Consider `Cc1cc(-c2cnc(Nc3cnn([C@H]4CCN(CCN5CCN(c6ccc(C7CCC(=O)NC7=O)cc6)C[C@@H]5C)[C@@H](C)C4)c3)c3nccn23)c(F)cc1F` (stereo partly drawn) [Compound 34, 3-(4-((S)-4-(2-((2S,4S)-4-(4-((5-(2,4-difluoro-5-methylphenyl)imdazo [1,2-a]pyrazin-8-yl)amino)-1H-pyrazol-1-yl)-2-methylpiperidin-1-yl)ethyl)-3-methylpiperazin-1-yl)phenyl) piperidine-2,6-dione], for which, on IRAK3-ePL, the “IRAK3 ePL degradation Ymin” value turned out to be 23% and the DC50 is 1.7 nM. This compound had a half-inhibitory concentration (IC50) on IRAK3 of 1.5 nM.

For the compound `Cn1nc(C2CCC(=O)NC2=O)c2ccc(N3CCN(CCN4CCC(n5cc(Nc6ncc(C7CC7)n7ccnc67)cn5)CC4)CC3)cc21` (stereo not drawn) [Compound 115, 3-(6-(4-(2-(4-(4-((5-cyclopropylimidazo[1,2-a]pyrazin-8-yl)amino)-1H-pyrazol-1-yl)piperidin-1-yl)ethyl)piperazin-1-yl)-1-methyl-1H-indazol-3-yl)piperidine-2,6-dione], the IC50 at IRAK3 amounted to 25 nM.

`Cc1cc(-c2cnc(Nc3cnn(C4CCN(CCN5CCC(n6cc(N7CCC(=O)NC7=O)cn6)CC5)CC4)c3)c3nccn23)c(F)cc1F` [Compound 116, 1-(1-(1-(2-(4-(4-((5-(2,4-difluoro-5-methylphenyl)imdazo [1,2-a]pyrazin-8-yl)amino)-1H-pyrazol-1-yl)piperidin-1-yl)ethyl)piperidin-4-yl)-1H-pyrazol-4-yl) dihydropyrimidine-2,4(1H,3H)-dione] registered an IC50 at IRAK3 of 0.12 nM.

Take `Cc1cc(-c2cnc(Nc3cnn([C@H]4CC[C@H](CCN5CCN(c6cccc7c(C8CCC(=O)NC8=O)nn(C)c67)CC5)CC4)c3)c3nccn23)c(F)cc1F` (stereo partly drawn) [Compound 117, 3-(7-(4-(2-((trans)-4-(4-((5-(2,4-difluoro-5-methylphenyl)imidazo[1,2-a]pyrazin-8-yl)amino)-1H-pyrazol-1-yl)cyclohexyl)ethyl)piperazin-1-yl)-1-methyl-1H-indazol-3-yl)piperidine-2,6-dione]: at IRAK3, the IC50 was determined as 1 nM. This IC50 is about 8.3-fold higher than that of the compound before.

`O=C1CCC(c2ccc(N3CCN(CC[C@H]4CC[C@H](n5cc(Nc6ncc(-c7cnn8c7CCCC8)n7ccnc67)cn5)CC4)CC3)cc2)C(=O)N1` (stereo partly drawn) [Compound 118]: the IC50 on IRAK3 was determined as 0.1 nM.

For `O=C1CCC(c2ccc(N3CCN(CCN4CCC(n5cc(Nc6ncc(-c7cnn(C8CC8)c7)n7ccnc67)cn5)CC4)CC3)cc2)C(=O)N1` (stereo not drawn) [Compound 119, 3-(4-(4-(2-(4-(4-((5-(1-cyclopropyl-1H-pyrazol-4-yl)imidazo[1,2-a]pyrazin-8-yl)amino)-1H-pyrazol-1-yl)piperidin-1-yl)ethyl)piperazin-1-yl)phenyl) piperidine-2,6-dione], the IC50 on IRAK3 was 1.7 nM.

For the compound `O=C1CCC(c2ccc(N3CCN(CC[C@H]4CC[C@H](n5cc(Nc6ncc(-c7cn[nH]c7)n7ccnc67)cn5)CC4)CC3)cc2)C(=O)N1` (stereo partly drawn) [Compound 120, 3-(4-(4-(2-((trans)-4-(4-((5-(1H-pyrazol-4-yl)imidazo[1,2-a]pyrazin-8-yl)amino)-1H-pyrazol-1-yl)cyclohexyl)ethyl)piperazin-1-yl)phenyl) piperidine-2,6-dione], the IC50 at IRAK3 amounted to 1.5 nM. The IC50 values of the last two compounds are within 1.5-fold of each other.
